Measurements reported in PubChem BioAssay AID548 (The Scripps Research Institute Molecular Screening Center, 2006).
Active and inactive are the calls of the source. How the calls were made is not given here.

Target: cAMP-dependent protein kinase catalytic subunit alpha (Homo sapiens) (UniProt P17612)
Test: PubChem AID 548
Details: Purified PKA, Kemptide, Kinase-Glo ATP luminescence

Row | Compound | IC50
1 | O/N=C/c1c[nH]c2ccccc12 | 34.4 µM
2 | Nc1c(S(=O)(=O)c2cccc(Cl)c2)c2nc3ccccc3nc2n1/N=C/c1ccc(O)c(O)c1 | > 59.6 µM (inactive)
